From PMC6152084, “Synthesis of New Hydrazone Derivatives for MAO Enzymes Inhibitory Activity” (Molecules : A Journal of Synthetic Chemistry and Natural …, 2017)
Marks after values point to notes of the source that are not given here.

Key:
[1] = molecular target: T1, hMAO-B (Homo sapiens, UniProt P27338); experiment: MAO-B inhibition assay (in vitro fluorometric Amplex Red method); type: biochemical; settings: for inhibition at 1000 µM: 10^−3 M; for inhibition at 100 µM: 10^−4 M
T1 construct: purchased Sigma-Aldrich (Steinheim, Germany)
T1 sequence (P27338 1-520): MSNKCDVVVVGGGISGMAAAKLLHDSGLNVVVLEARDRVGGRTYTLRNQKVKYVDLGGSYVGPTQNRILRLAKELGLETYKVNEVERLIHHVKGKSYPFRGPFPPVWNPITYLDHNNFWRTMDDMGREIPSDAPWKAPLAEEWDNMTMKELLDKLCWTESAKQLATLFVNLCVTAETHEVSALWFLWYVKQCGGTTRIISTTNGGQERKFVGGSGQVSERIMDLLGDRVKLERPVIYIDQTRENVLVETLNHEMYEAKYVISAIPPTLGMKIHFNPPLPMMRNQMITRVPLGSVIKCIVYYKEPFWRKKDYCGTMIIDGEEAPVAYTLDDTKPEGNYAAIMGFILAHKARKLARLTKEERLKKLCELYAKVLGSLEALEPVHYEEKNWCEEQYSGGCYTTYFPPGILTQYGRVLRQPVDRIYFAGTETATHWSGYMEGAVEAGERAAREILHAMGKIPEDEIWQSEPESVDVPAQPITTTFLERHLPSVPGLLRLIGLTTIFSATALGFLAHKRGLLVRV

[2] = system: Salmonella typhimurium TA100; experiment: Ames MPF genotoxicity test, TA100; type: cell-based; settings: for mutagenicity classification against TA100: with/without metabolic activation (S9)
Protocol: An Ames MPF assay was performed to investigate the genotoxicity of the compounds 2a and 2b.
The genotoxicity of the compounds was determined by Ames assay as previously described using the Ames MPF 98/100 mutagenicity test sample kit (Xenometrix AG, Allschwil, Switzerland). This test was performed with Salmonella typhimurium strains TA98 (frameshift mutations) and TA100 (base-pair substitutions). Compounds was prepared in six different concentrations (5, 2.5, 1.25, 0.625, 0.3125, 0.156 mg/mL) which was between […] and 5000 µg/mL according to the previous guidelines in DMSO. In order to detect mutagenic potential, test performed with and without Aroclor™-1254 induced male Sprague-Dawley rat liver microsomal enzyme (S9) mix (Xenometrix AG). While the positive control for TA 98 without S9 mix was 2-nitrofluorene (2 μg/mL), 1 μg/mL of 2-aminoanthracene was positive control with S9 against TA 98. For TA100, 4-nitroquinoline N-oxide (0.1 μg/mL) was positive control without S9 mix and 2.5 μg/mL of 2-aminoanthracene was positive control. 4% DMSO solution was the solvent control. At the end of the experiment, revertant bacteria decreased the pH of solution and indicator medium colour was changed to yellow. Yellow wells were counted as positive and compared with the negative control. Fold induction over the negative control and fold induction over the baseline were calculated. Fold induction over the negative control is the ratio of the mean number of positive wells for the dose concentration divided by the mean number of positive wells for the zero dose (negative) control. Fold induction over the baseline is the ratio of the mean number of positive wells for the dose concentration divided by zero dose baseline. The zero dose baseline is obtained by adding one standard deviation to the mean number of positive wells of the zero dose control. Mutagenity was determined according to the criteria from previous studies. For a baseline value ≤ 3, significant increases between 2 and 3-fold the baseline were classified as weak mutagen, increases ≥ 3-fold the baseline were classified as mutagen. For a baseline was > 3, significant increases between 1.5 and 2.5-fold the baseline were classified as weak mutagen, and increases ≥ 2.5-fold the baseline, were classified as mutagen. In principle, for a mutagenic compound, at least two adjacent doses with significant increase or a significant increase at the highest dose level should be observed. All doses were compared according to Student’s t-test at p < 0.05 as statistically.

[3] = molecular target: T2, hMAO-A (Homo sapiens, UniProt P21397); experiment: MAO-A inhibition assay (in vitro fluorometric Amplex Red method); type: biochemical; settings: for inhibition at 1000 µM: 10^−3 M; for inhibition at 100 µM: 10^−4 M; for inhibition at 10 µM: 10^−5 M; for inhibition at 1 µM: 10^−6 M; for inhibition at 0.1 µM: 10^−7 M; for inhibition at 0.01 µM: 10^−8 M; for inhibition at 0.001 µM: 10^−9 M; for inhibition against hMAO-A in the initial assay: first step, 10^−3 and 10^−4 M; for selectivity towards hMAO-A: versus hMAO-B
T2 construct: purchased Sigma-Aldrich (Steinheim, Germany)
T2 sequence (P21397 1-527): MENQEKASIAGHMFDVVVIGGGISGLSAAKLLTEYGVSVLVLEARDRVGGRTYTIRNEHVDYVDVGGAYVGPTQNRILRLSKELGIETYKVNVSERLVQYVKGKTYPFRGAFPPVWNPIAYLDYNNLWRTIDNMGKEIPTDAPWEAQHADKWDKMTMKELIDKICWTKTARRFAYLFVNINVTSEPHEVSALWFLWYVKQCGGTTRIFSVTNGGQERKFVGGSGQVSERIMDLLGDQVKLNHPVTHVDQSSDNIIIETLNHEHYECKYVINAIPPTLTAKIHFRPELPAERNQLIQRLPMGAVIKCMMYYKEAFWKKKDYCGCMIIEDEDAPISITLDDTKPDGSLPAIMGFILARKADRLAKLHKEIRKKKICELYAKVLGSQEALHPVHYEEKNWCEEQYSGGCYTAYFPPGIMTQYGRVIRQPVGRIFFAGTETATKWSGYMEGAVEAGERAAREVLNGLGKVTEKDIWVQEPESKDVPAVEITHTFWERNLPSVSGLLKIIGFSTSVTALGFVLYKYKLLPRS

Compound	inhibition at 1000 µM [1] [%]	inhibition at 100 µM [1] [%]	Revertants Fold Increase (Over Baseline) ([2]; TA 100, S9+, 0.156 mg/mL)	Revertants Fold Increase (Over Baseline) ([2]; TA 100, S9+, 0.3125 mg/mL)	Revertants Fold Increase (Over Baseline) ([2]; TA 100, S9+, 0.625 mg/mL)	Revertants Fold Increase (Over Baseline) ([2]; TA 100, S9+, 1.25 mg/mL)	Revertants Fold Increase (Over Baseline) ([2]; TA 100, S9+, 2.5 mg/mL)	Revertants Fold Increase (Over Baseline) ([2]; TA 100, S9+, 5 mg/mL)	Revertants Fold Increase (Over Baseline) ([2]; TA 100, S9−, 0.156 mg/mL)	Revertants Fold Increase (Over Baseline) ([2]; TA 100, S9−, 0.3125 mg/mL)	Revertants Fold Increase (Over Baseline) ([2]; TA 100, S9−, 0.625 mg/mL)	Revertants Fold Increase (Over Baseline) ([2]; TA 100, S9−, 1.25 mg/mL)	Revertants Fold Increase (Over Baseline) ([2]; TA 100, S9−, 2.5 mg/mL)	Revertants Fold Increase (Over Baseline) ([2]; TA 100, S9−, 5 mg/mL)	mutagenicity classification against TA100 [2]	IC50 [3] [nM]	inhibition at 1000 µM [3] [%]	inhibition at 100 µM [3] [%]	inhibition at 10 µM [3] [%]	inhibition at 1 µM [3] [%]	also measured
CN1CCN(c2ccc(C=NNc3ccccc3)cc2)CC1 [Compound 2b, 1-(4-(4-Methylpiperazine-1-yl)benzylidene)-2-phenylhydrazine]	63.7 ± 1.03	43 ± 1.2	1.46 *	1.40	1.46	0.79	0.12 *	0.00 *	0.40	0.17 *	0.06 *	0.03 *	0.00 *	0.00 *	non-mutagenic	28 ± 1	93.53 ± 0.412	88.86 ± 0.214	80.42 ± 0.47	66.22 ± 0.54	Fold-inductions over baseline ([2]; TA100 with S9, each concentration): ≤ 1.5; inhibition at 0.1 µM [3]: 48.2 ± 0.631%; inhibition at 0.01 µM [3]: 45.3 ± 0.48%; inhibition at 0.001 µM [3]: 38.15 ± 0.367%; inhibition against hMAO-A in the initial assay [3]: more than 50%; fold more active than moclobemide against hMAO-A ([3]; ratio of IC50 values): 216 fold; selectivity towards hMAO-A [3]: selective inhibition potency towards hMAO-A
CC1CCCCN1c1ccc(/C=N/Nc2ccccc2)cc1 (centres unmarked) [Compound 2a, 1-(4-(2-Methypiperidin-1-yl)benzylidene)-2-phenylhydrazine]	35 ± 0.766	22.1 ± 0.443	0.99	0.69	0.91	0.95	0.39	0.82	0.44	0.63	0.24 *	0.19 *	0.05 *	0.00 *	not genotoxic	342 ± 15	88.2 ± 0.821	84.29 ± 0.641	75.1 ± 0.693	50.8 ± 0.582	Fold-inductions over baseline ([2]; TA100, absence and presence of S9, each concentration): less than 1.5; inhibition at 0.1 µM [3]: 34.7 ± 0.378%; inhibition at 0.01 µM [3]: 30.5 ± 0.542%; inhibition at 0.001 µM [3]: 25.5 ± 0.517%; inhibition against hMAO-A in the initial assay [3]: more than 50%; selectivity towards hMAO-A [3]: selective inhibition potency towards hMAO-A
